Consider 17 molecules from PubChem BioAssay AID256 (DTP/NCI, 2004).

Several values for one entry are separate records, joined by “and”; a condition that tells them apart may be missing. Equal entries are not always repeated. Inconclusive results and toxic doses are left out.

The test has as its system CD2F1 mice, L1210 leukemia ip, survival T/C. In words: NCI In Vivo Anticancer Drug Screen. Data for tumor model L1210 Leukemia (intraperitoneal) in CD2F1 (CDF1) mice. The conditions noted are these: higher = longer survival. The method in brief: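 Each value reflects a quotient of treated over vehicle control outcomes in mice with a transplanted tumor.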
The mark [1] stands for this setting: endpoint: mean survival time, dose: 200.0 mg/kg/injection, schedule: Q04DX003 (ip), vehicle: saline with Tween-80.
Setting [2] is: endpoint: mean survival time, dose: 400.0 mg/kg/injection, schedule: Q04DX003 (ip), vehicle: saline with Tween-80.
Where [3] appears, read: endpoint: mean survival time, dose: 100.0 mg/kg/injection, schedule: Q01DX009 (ip), vehicle: saline with Tween-80.
The mark [4] stands for this setting: endpoint: mean survival time, dose: 200.0 mg/kg/injection, schedule: Q01DX009 (ip), vehicle: saline with Tween-80.
The mark [5] stands for this setting: endpoint: mean survival time, dose: 400.0 mg/kg/injection, schedule: Q01DX009 (ip), vehicle: saline with Tween-80.
[6] abbreviates: endpoint: mean survival time, dose: 50.0 mg/kg/injection, schedule: Q01DX009 (ip), vehicle: saline with Tween-80.
The mark [7] stands for this setting: endpoint: mean survival time, dose: 100.0 mg/kg/injection, schedule: Q04DX003 (ip), vehicle: saline.
The mark [8] stands for this setting: endpoint: mean survival time, dose: 200.0 mg/kg/injection, schedule: Q04DX003 (ip), vehicle: saline.
Where [9] appears, read: endpoint: mean survival time, dose: 400.0 mg/kg/injection, schedule: Q04DX003 (ip), vehicle: saline.
Where [10] appears, read: endpoint: mean survival time, dose: 100.0 mg/kg/injection, schedule: Q04DX003 (ip), vehicle: saline with Tween-80.
Setting [11] is: endpoint: mean survival time, dose: 100.0 mg/kg/injection, schedule: Q01DX001 (ip), vehicle: saline with Tween-80.
Where [12] appears, read: endpoint: mean survival time, dose: 200.0 mg/kg/injection, schedule: Q01DX001 (ip), vehicle: saline with Tween-80.
Setting [13] is: endpoint: mean survival time, dose: 400.0 mg/kg/injection, schedule: Q01DX001 (ip), vehicle: saline with Tween-80.
[14] abbreviates: endpoint: mean survival time, dose: 12.5 mg/kg/injection, schedule: Q01DX005 (ip), vehicle: other.
[15] abbreviates: endpoint: mean survival time, dose: 25.0 mg/kg/injection, schedule: Q01DX005 (ip), vehicle: other.
Setting [16] is: endpoint: mean survival time, dose: 50.0 mg/kg/injection, schedule: Q01DX005 (ip), vehicle: other.
[17] abbreviates: endpoint: mean survival time, dose: 100.0 mg/kg/injection, schedule: Q01DX005 (ip), vehicle: other.
Setting [18] is: endpoint: mean survival time, dose: 200.0 mg/kg/injection, schedule: Q01DX005 (ip), vehicle: other.

For `CCSC(C(O)C(O)C(O)CO)n1cc(F)c(=O)[nH]c1=O` (stereo not given), the T/C is, setting by setting: (endpoint: mean survival time, dose: 12.5 mg/kg/injection, schedule: Q01DX005 (ip), vehicle: water) 104 % of control; (endpoint: mean survival time, dose: 25.0 mg/kg/injection, schedule: Q01DX005 (ip), vehicle: water) 105 % of control; (endpoint: mean survival time, dose: 50.0 mg/kg/injection, schedule: Q01DX005 (ip), vehicle: water) 110 % of control; (endpoint: mean survival time, dose: 100.0 mg/kg/injection, schedule: Q01DX005 (ip), vehicle: water) 105 % of control; (endpoint: mean survival time, dose: 200.0 mg/kg/injection, schedule: Q01DX005 (ip), vehicle: water) 104 % of control.
Regarding `CCC(=O)c1ccccc1NC(C)=O`, the T/C was 95 % of control under setting [1] and 97 % of control under setting [2].
Regarding `O=C1CCCCCC1c1ccccc1` (stereo not given), the T/C was 102 % of control under setting [3], 102 % of control under setting [4] and 98 % of control under setting [5].
With `CC(CN)OS(=O)(=O)O` (stereo not given), the T/C was 100 % of control under setting [6]; 103 % of control (endpoint: mean survival time, dose: 50.0 mg/kg/injection, schedule: Q04DX003 (ip), vehicle: saline); 105 % of control under setting [3]; 106 % of control under setting [7]; 101 % of control under setting [4]; 97 % of control under setting [8]. Moreover, the T/C runs as follows: under setting [5], 101 % of control; under setting [9], 105 % of control.
Regarding `O=C(COc1ccc(Cl)c(Cl)c1)Nc1ccc[n+](Cc2cccc(Cl)c2S(=O)(=O)F)c1`, the T/C reads like this: under setting [10], 97 % of control; under setting [1], 105 % of control.
Regarding `O=C1N(Cl)C2C(N1Cl)N(Cl)C(=O)N2Cl` (stereo not given), the T/C was 98 % of control (endpoint: mean survival time, dose: 25.0 mg/kg/injection, schedule: Q04DX003 (ip), vehicle: saline with Tween-80); 104 % of control (endpoint: mean survival time, dose: 50.0 mg/kg/injection, schedule: Q04DX003 (ip), vehicle: saline with Tween-80); 89 % of control under setting [10].
For `O=[N+]([O-])c1cccc(-c2nn[nH]n2)c1`, the T/C by setting is: under setting [11], 93 % of control; under setting [3], 98 % of control; under setting [10], 97 % of control; under setting [12], 104 % of control; under setting [4], 117 % of control; under setting [1], 97 % of control. The T/C is, setting by setting: under setting [13], 88 % of control; under setting [5], 101 % of control; under setting [2], 103 % of control.
Regarding `N=C(Oc1ccccc1)C(Cl)(Cl)Cl`, the T/C runs as follows: under setting [6], 90 % of control; under setting [3], 95 % of control; under setting [4], 98 % of control.
Take `S=c1nc[nH]c2nc(-c3ccccc3)[nH]c12`: the T/C under setting [14] is 98 % of control; the T/C under setting [15] is 96 % of control; the T/C under setting [16] is 102 % of control; the T/C under setting [17] is 98 % of control; the T/C under setting [18] is 93 % of control.
Consider `O=C(COc1ccc(Cl)cc1Cl)Nc1ccccc1F`, for which the T/C runs as follows: under setting [10], 100 % of control; under setting [1], 94 % of control; under setting [2], 94 % of control.
For `c1ccc2[nH]c(CN(CCN(Cc3nc4ccccc4[nH]3)Cc3nc4ccccc4[nH]3)Cc3nc4ccccc4[nH]3)nc2c1`, the T/C by setting is: (endpoint: median survival time, dose: 3.12 mg/kg/injection, schedule: Q01DX005 (ip), vehicle: DMSO) 100 % of control; (endpoint: median survival time, dose: 6.25 mg/kg/injection, schedule: Q01DX005 (ip), vehicle: DMSO) 100 % of control.
Turning to `CCOC(=O)c1ccc(NS(=O)c2ccccc2)cc1` (stereo not given), the T/C runs as follows: (endpoint: mean survival time, dose: 100.0 mg/kg/injection, schedule: Q01DX001 (ip), vehicle: saline) 95 % of control; under setting [7], 109 % of control; (endpoint: mean survival time, dose: 200.0 mg/kg/injection, schedule: Q01DX001 (ip), vehicle: saline) 95 % of control; under setting [8], 108 % of control; (endpoint: mean survival time, dose: 400.0 mg/kg/injection, schedule: Q01DX001 (ip), vehicle: saline) 94 % of control; under setting [9], 103 % of control.
On to `COC(=N)/C(C#N)=N/C1OCC(O)C(O)C1O` (stereo not given), for which the T/C was 101 % of control under setting [14]; 102 % of control under setting [15]; 102 % of control under setting [16]; 102 % of control under setting [17]; 101 % of control under setting [18].
With `O=C(C=C(C(F)(F)F)C(F)(F)F)c1ccc(F)cc1`, the T/C (endpoint: mean survival time, dose: 100.0 mg/kg/injection, schedule: Q04DX003 (ip), vehicle: other) was 88 % of control.
For the molecule `O=C1C=C(N2C3C4CCC(C4)C32)C(=O)C=C1c1ccccc1` (stereo not given), the T/C is 96 % of control and 98 % of control and 108 % of control (endpoint: mean survival time, dose: 50.0 mg/kg/injection, schedule: Q01DX001 (ip), vehicle: saline with Tween-80); 121 % of control and 94 % of control and 96 % of control under setting [11]; 115 % of control and 97 % of control and 102 % of control under setting [12]; 102 % of control under setting [13].
In the case of `O=c1[nH]c(=O)n(C2CC(O)C(CO)O2)cc1C(F)(F)F` (stereo not given), the T/C reads like this: (endpoint: mean survival time, dose: 16.0 mg/kg/injection, schedule: Q01DX009 (ip), vehicle: water) 152 % of control; (endpoint: mean survival time, dose: 16.0 mg/kg/injection, schedule: Q03HX016 (ip), vehicle: water) 123 % of control; (endpoint: mean survival time, dose: 16.0 mg/kg/injection, schedule: Q03HX024 (ip), vehicle: water) 171 % of control; (endpoint: mean survival time, dose: 64.0 mg/kg/injection, schedule: Q01DX009 (ip), vehicle: water) 152 % of control; (endpoint: mean survival time, dose: 64.0 mg/kg/injection, schedule: Q04DX003 (ip), vehicle: water) 118 % of control; (endpoint: mean survival time, dose: 128.0 mg/kg/injection, schedule: Q03HX016 (ip), vehicle: water) 157 % of control. Moreover, the T/C runs as follows: (endpoint: mean survival time, dose: 128.0 mg/kg/injection, schedule: Q03HX024 (ip), vehicle: water) 109 % of control; (endpoint: mean survival time, dose: 128.0 mg/kg/injection, schedule: Q04DX003 (ip), vehicle: water) 112 % of control; (endpoint: mean survival time, dose: 128.0 mg/kg/injection, schedule: Q08DX002 (ip), vehicle: water) 100 % of control; (endpoint: mean survival time, dose: 256.0 mg/kg/injection, schedule: Q01DX001 (ip), vehicle: water) 108 % of control; (endpoint: mean survival time, dose: 256.0 mg/kg/injection, schedule: Q01DX009 (ip), vehicle: water) 112 % of control; (endpoint: mean survival time, dose: 256.0 mg/kg/injection, schedule: Q03HX008 (ip), vehicle: water) 152 % of control. Also, the T/C (endpoint: mean survival time, dose: 256.0 mg/kg/injection, schedule: Q03HX016 (ip), vehicle: water) is 163 % of control; the T/C (endpoint: mean survival time, dose: 256.0 mg/kg/injection, schedule: Q04DX003 (ip), vehicle: water) is 118 % of control; the T/C (endpoint: mean survival time, dose: 256.0 mg/kg/injection, schedule: Q08DX002 (ip), vehicle: water) was 109 % of control; the T/C (endpoint: mean survival time, dose: 512.0 mg/kg/injection, schedule: Q01DX001 (ip), vehicle: water) is 114 % of control; the T/C (endpoint: mean survival time, dose: 512.0 mg/kg/injection, schedule: Q03HX008 (ip), vehicle: water) was 153 % of control; the T/C (endpoint: mean survival time, dose: 512.0 mg/kg/injection, schedule: Q08DX002 (ip), vehicle: water) was 112 % of control. For the same molecule, the T/C is, setting by setting: (endpoint: mean survival time, dose: 1024.0 mg/kg/injection, schedule: Q08DX002 (ip), vehicle: water) 114 % of control; (endpoint: mean survival time, dose: 2048.0 mg/kg/injection, schedule: Q01DX001 (ip), vehicle: water) 121 % of control; (endpoint: mean survival time, dose: 2048.0 mg/kg/injection, schedule: Q08DX002 (ip), vehicle: water) 124 % of control.
Turning to `CC(=O)Cc1ccc(C)cc1`, the T/C is 97 % of control under setting [10], 93 % of control under setting [1] and 104 % of control under setting [2].
